# Reference: patent publication US20250332149A1, “PIPERIDINE COMPOUNDS AND PHARMACEUTICAL COMPOSITIONS” (Lumos Pharma, Inc., priority 2024, published 2025)
# Where two headings read alike, the source gives them in different places.
# Key:
# Assay type in all cases: in vivo, human
# serum IGF-1 [1] = test: Phase 1 study Part 2: PD, serum IGF-1 concentration fasted vs fed
# Method: The serum IGF-1 concentration values remained stable over the sampling time interval post dose. At pre-dose, mean (SD) serum […] concentration values were 209.2 (54.28) ng/mL for Treatment A and 188.8 (26.11) ng/mL for Treatment B. At 24 h post-dose, the serum GH concentration value peaked at 244.7 (37.66) ng/mL in Treatment A and 220.8 (43.50) ng/mL in Treatment B.
# serum IGF-1 [2] = test: Phase 1 study Part 1: PD, serum IGF-1 concentration
# Method: The serum IGF-1 concentration values remained stable over the sampling time interval post dose. At pre-dose, mean (SD) serum IGF-1 concentration values were 200.9 (50.41) ng/mL for Treatment A, 192.6 (50.55) ng/mL for Treatment B, 192.5 (47.67) ng/mL for Treatment C, and 195.8 (47.16) ng/mL for Treatment D. At 24 h post-dose, the serum concentration values rose to 224.7 (48.70) ng/mL in Treatment A, 224.2 (50.24) ng/mL in Treatment B, 230.4 (60.81) ng/mL in Treatment C, and 223.7 (56.75) ng/mL in Treatment D.
# [3] = Phase 1 study Part 2: food effect on plasma PK of LUM-201 capsule; settings: for % AUCex, Arithmetic Mean / % AUCex, Geometric Mean / Clast, Arithmetic Mean / Clast, Geometric Mean / tlag, Median / tlast, Median / λz, Arithmetic Mean / λz, Geometric Mean / AUC(0-inf) / AUC(0-t) / Cmax / half-life / Tmax: oral; for AUC(0-inf) / AUC(0-t) / Cmax / half-life / Tmax: human, plasma, po, 85.3 mg; for Tmax: read-out: tmax, Median
# Source text: This was a single center, open-label, randomized, Phase 1 study in healthy adult subjects. This study consisted of 2 parts: Part 1 was a 4-sequence, 4-treatment, 4 Treatment Periods, crossover study to determine the relative bioavailability of current tablets to new capsule formulations of LUM-201; Part 2 was a 2-sequence, 2-treatment, 2 Treatment Periods, crossover study to evaluate the food effect on the bioavailability of the new capsule formulation of LUM-201. An individual subject was allowed to participate in only 1 part (Part 1 or Part 2) of the study. Forty subjects were planned and enrolled in this study. • Part 1: A total of 28 subjects were planned and enrolled in Part 1. Part 1 consisted of 4 sequences, each having 4 Treatment Periods enrolling 7 subjects (1:1:1:1 ratio). During Treatment Periods 1 through 4, each subject received 4 single oral doses of LUM-201 drug product in a randomized, crossover order. • Part 2: A total of 12 subjects were planned and enrolled in Part 2. Part 2 consisted of 2 sequences, each having 2 Treatment Periods enrolling 6 subjects (1:1 ratio). Each subject received a single oral dose of LUM-201 at each Treatment Period. During Treatment Periods 1 and 2, each subject received 2 single oral doses of LUM-201 in a randomized, crossover order. • On Day 1 of Treatment Period 1, subjects were administered the assigned treatment (A or B) as randomized, followed by a washout of at least 3 days between Treatment Periods 1 and 2. Subjects stayed in-house (not discharged) between the Treatment Periods. • Treatment A was dosed at 85.3 mg capsule formulation of LUM-201 (intact capsule consumed unopened) consumed while subject was in a fasted state with 240 mL of water. • Treatment B was dosed at 85.3 mg capsule formulation of LUM-201 (intact capsule consumed unopened) consumed 30 minutes after start of a high-fat meal with 240 mL of water. • Subjects were discharged from the study center on the morning of Day 3 of Treatment Period 2 after the scheduled study assessments had been completed.
# Fasted Treatment Period (Treatments A): Each subject received a single dose of LUM-201 in the morning of Day 1 after an overnight fast of at least 10 hours.
# Treatment A was dosed at 85.3 mg capsule formulation of LUM-201 (intact capsule consumed unopened) consumed while subject was in a fasted state with 240 mL of water.
# Fed Treatment Period (Treatment B): On the morning of Day 1, following an overnight fast of at least 10 hours, a high-fat breakfast (approximately 800 to 1000 calories) was served approximately 30 minutes before the planned dosing time. Subjects were required to eat the entire breakfast in less than 30 minutes.
# Treatment B was dosed at 85.3 mg capsule formulation of LUM-201 (intact capsule consumed unopened) consumed 30 minutes after the start of the high-fat breakfast with 240 mL of water according to the FDA Guidance 20225. […]
# [4] = 85.3 mg capsule with food vs fasted, statistically significant
# [5] = Part 2, Treatment A: 85.3 mg capsule, fasted
# [6] = Part 2, Treatment B: 85.3 mg capsule, 30 minutes after start of high-fat meal
smiles,measurement,setting,value
"CC(C)(N)C(=O)N[C@H](COCc1ccccc1)C(=O)N1CCC2(CC1)CN(S(C)(=O)=O)c1ccccc12 [LUM-201, N-[1(R)-[(1,2-dihydro-1-methanesulfonylspiro[3H-indole-3,4′-piperdin]-yl)carbonyl]-2-(phenylmethyloxy)ethyl]-2-amino-2-methylpropanamide methanesulfonate]",serum IGF-1 concentration,"serum IGF-1 [1]; 24 h post-dose, Part 2, Treatment A: 85.3 mg capsule, fasted",244.7 (37.66) ng/mL
same,serum IGF-1 concentration,"serum IGF-1 [1]; 24 h post-dose, Part 2, Treatment B: 85.3 mg capsule after high-fat meal",220.8 (43.50) ng/mL
same,"serum IGF-1 concentration values and trend, fasted vs fed","serum IGF-1 [1]; Part 2, Treatment A (fasted state) and Treatment B (fed state)",comparable
same,serum IGF-1 concentration,"serum IGF-1 [1]; pre-dose, Part 2, Treatment A: 85.3 mg capsule, fasted",209.2 (54.28) ng/mL
same,serum IGF-1 concentration,"serum IGF-1 [1]; pre-dose, Part 2, Treatment B: 85.3 mg capsule after high-fat meal",188.8 (26.11) ng/mL
same,"serum IGF-1 concentration, mean (SD)","serum IGF-1 [2]; 24 h post-dose, Part 1, Treatment A: five 18 mg tablets (90 mg), fasted",224.7 (48.70) ng/mL
same,"serum IGF-1 concentration, mean (SD)","serum IGF-1 [2]; 24 h post-dose, Part 1, Treatment B: 85.3 mg whole capsule, fasted",224.2 (50.24) ng/mL
same,"serum IGF-1 concentration, mean (SD)","serum IGF-1 [2]; 24 h post-dose, Part 1, Treatment C: 85.3 mg capsule contents (dry), fasted",230.4 (60.81) ng/mL
same,"serum IGF-1 concentration, mean (SD)","serum IGF-1 [2]; 24 h post-dose, Part 1, Treatment D: 85.3 mg capsule contents in banana puree",223.7 (56.75) ng/mL
same,"serum IGF-1 concentration, mean (SD)","serum IGF-1 [2]; pre-dose, Part 1, Treatment A: five 18 mg tablets (90 mg), fasted",200.9 (50.41) ng/mL
same,"serum IGF-1 concentration, mean (SD)","serum IGF-1 [2]; pre-dose, Part 1, Treatment B: 85.3 mg whole capsule, fasted",192.6 (50.55) ng/mL
same,"serum IGF-1 concentration, mean (SD)","serum IGF-1 [2]; pre-dose, Part 1, Treatment C: 85.3 mg capsule contents (dry), fasted",192.5 (47.67) ng/mL
same,"serum IGF-1 concentration, mean (SD)","serum IGF-1 [2]; pre-dose, Part 1, Treatment D: 85.3 mg capsule contents in banana puree",195.8 (47.16) ng/mL
same,food effect on tmax,[3]; 85.3 mg capsule with food vs fasted,no significant effect
same,increase of AUC0-inf with food,[3]; [4],17.8%
same,increase of AUC0-last with food,[3]; [4],17.8%
same,increase of Cmax with food,[3]; [4],64.4%
same,"% AUCex, Arithmetic Mean",[3]; [5],1.868%
same,"% AUCex, Geometric Mean",[3]; [5],1.689%
same,"Clast, Arithmetic Mean",[3]; [5],0.7762 ng/mL
same,"Clast, Geometric Mean",[3]; [5],0.7216 ng/mL
same,"tlag, Median",[3]; [5],0.2489 h
same,"tlast, Median",[3]; [5],48.03 h
same,"λz, Arithmetic Mean",[3]; [5],0.0874 h⁻¹
same,"λz, Geometric Mean",[3]; [5],0.0848 h⁻¹
same,"% AUCex, Arithmetic Mean",[3]; [6],2.081%
same,"% AUCex, Geometric Mean",[3]; [6],1.845%
same,"Clast, Arithmetic Mean",[3]; [6],0.9223 ng/mL
same,"Clast, Geometric Mean",[3]; [6],0.8783 ng/mL
same,"tlag, Median",[3]; [6],0.2906 h
same,"tlast, Median",[3]; [6],48.00 h
same,"λz, Arithmetic Mean",[3]; [6],0.0829 h⁻¹
same,"λz, Geometric Mean",[3]; [6],0.0803 h⁻¹
same,AUC(0-inf),"[3]; Part 2, Treatment A: 85.3 mg capsule, fasted, read-out: AUC0-inf, Arithmetic Mean",538 ng·h/mL
same,AUC(0-inf),"[3]; Part 2, Treatment A: 85.3 mg capsule, fasted, read-out: AUC0-inf, Geometric Mean",504 ng·h/mL
same,AUC(0-t),"[3]; Part 2, Treatment A: 85.3 mg capsule, fasted, read-out: AUC0-last, Arithmetic Mean",528 ng·h/mL
same,AUC(0-t),"[3]; Part 2, Treatment A: 85.3 mg capsule, fasted, read-out: AUC0-last, Geometric Mean",494 ng·h/mL
same,Cmax,"[3]; Part 2, Treatment A: 85.3 mg capsule, fasted, read-out: Cmax, Arithmetic Mean",87.3 ng/mL
same,Cmax,"[3]; Part 2, Treatment A: 85.3 mg capsule, fasted, read-out: Cmax, Geometric Mean",80.5 ng/mL
same,half-life,"[3]; Part 2, Treatment A: 85.3 mg capsule, fasted, read-out: t1/2, Arithmetic Mean (converted)",8.39 h
same,half-life,"[3]; Part 2, Treatment A: 85.3 mg capsule, fasted, read-out: t1/2, Geometric Mean (converted)",8.17 h
same,Tmax,[3]; [5],1.53 h
same,AUC(0-inf),"[3]; Part 2, Treatment B: 85.3 mg capsule, 30 minutes after start of high-fat meal, read-out: AUC0-inf, Arithmetic Mean",626 ng·h/mL
same,AUC(0-inf),"[3]; Part 2, Treatment B: 85.3 mg capsule, 30 minutes after start of high-fat meal, read-out: AUC0-inf, Geometric Mean",591 ng·h/mL
same,AUC(0-t),"[3]; Part 2, Treatment B: 85.3 mg capsule, 30 minutes after start of high-fat meal, read-out: AUC0-last, Arithmetic Mean",614 ng·h/mL
same,AUC(0-t),"[3]; Part 2, Treatment B: 85.3 mg capsule, 30 minutes after start of high-fat meal, read-out: AUC0-last, Geometric Mean",579 ng·h/mL
same,Cmax,"[3]; Part 2, Treatment B: 85.3 mg capsule, 30 minutes after start of high-fat meal, read-out: Cmax, Arithmetic Mean",151 ng/mL
same,Cmax,"[3]; Part 2, Treatment B: 85.3 mg capsule, 30 minutes after start of high-fat meal, read-out: Cmax, Geometric Mean",134 ng/mL
same,half-life,"[3]; Part 2, Treatment B: 85.3 mg capsule, 30 minutes after start of high-fat meal, read-out: t1/2, Arithmetic Mean (converted)",8.87 h
same,half-life,"[3]; Part 2, Treatment B: 85.3 mg capsule, 30 minutes after start of high-fat meal, read-out: t1/2, Geometric Mean (converted)",8.61 h
same,Tmax,[3]; [6],1.5 h
